The values below come from ChEMBL document CHEMBL3259737, “Lead optimization studies of cinnamic amide EP2 antagonists” (J Med Chem, 2014).

Converted amounts (≈) assume the structure as drawn. Some results are limits rather than exact numbers.

Series [1] can be described thus: physchem. To be noted: PBS buffer, pH 7.4.
Series [2] deals with C6. Put plainly: Cytotoxicity against rat C6 cells assessed as cell viability.
Series [3] concerns the target Prostaglandin E2 receptor EP2 subtype (Homo sapiens) (UniProt P43116). In words: Competitive antagonist activity at human EP2 receptor expressed in rat C6 cells assessed as parallel rightward shift in PGE2 concentration response curve treated for 10 mins prior to PGE2 challenge for 40 mins by TR-FRET assay. The series is classed as cell-based. In general terms: In TR-FRET formats the signal depends on donor and acceptor labels being close together.

Series [4] is described as follows: Metabolic stability in mouse liver microsomes assessed as compound remaining at 10 uM after 60 mins. Background: Liver microsomes are a subcellular fraction often used to study metabolism.
Series [5] in a line: Metabolic stability in human liver microsomes assessed as compound remaining at 10 uM after 60 mins.
Series [6] can be described thus: Metabolic stability in mouse liver microsomes assessed as compound remaining at 1 uM after 60 mins.
Series [7] can be described thus: Metabolic stability in human liver microsomes assessed as compound remaining at 1 uM after 60 mins.
Series [8] can be described thus: Terminal half life in C57BL/6 mouse plasma at 3 mg/kg, ip. In kind it is ADME, organism-based. The arrangement: dose 3 mg/kg, route intraperitoneal. To be noted: read-out: beta t1/2 (converted).
A short description of series [9]: in vivo. To be noted: C57BL/6, mouse, ip, 5 mg/kg.
Series [10] in a line: Ratio of drug level in brain to plasma in C57BL/6 mouse at 5 mg/kg, ip measured after 1 to 2 hrs.
Series [11] is described as follows: in vivo. To be noted: C57BL/6, mouse, po, 10 mg/kg.
Series [12] can be described thus: Ratio of drug level in brain to plasma in C57BL/6 mouse at 10 mg/kg, po measured after 1 to 2 hrs.
Series [13] in a line: Cmax in C57BL/6 mouse at 3 mg/kg, iv. The series is classed as ADME, organism-based. The arrangement: dose 3 mg/kg, route intravenous. To be noted: in vivo.

Sequence of Prostaglandin E2 receptor EP2 subtype (Homo sapiens) (P43116 whole entry): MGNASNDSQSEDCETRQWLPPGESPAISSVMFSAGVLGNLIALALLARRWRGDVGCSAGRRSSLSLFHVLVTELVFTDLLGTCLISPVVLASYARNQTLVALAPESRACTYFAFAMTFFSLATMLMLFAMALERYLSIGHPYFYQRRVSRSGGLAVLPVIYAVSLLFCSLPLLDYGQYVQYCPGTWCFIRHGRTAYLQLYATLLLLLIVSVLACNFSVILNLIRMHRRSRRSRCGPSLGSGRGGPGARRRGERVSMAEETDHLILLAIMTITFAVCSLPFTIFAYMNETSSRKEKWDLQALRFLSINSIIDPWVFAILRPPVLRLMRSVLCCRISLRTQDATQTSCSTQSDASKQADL

`COc1cc(/C=C/C(=O)NCCc2c(C)[nH]c3c(F)cc(F)cc23)cc(OC)c1OC`: the solubility (kinetic) in series [1] is less than 25 µM.

The compound `COc1cc(/C=C/C(=O)NCCn2c(C)cc3ccccc32)cc(OC)c1OCCO` returned a kinetic solubility in series [1] of 66 µM (≈ 28 µg/mL). For the same compound, the CC50 in series [2] was determined as 43.3 µM. Besides, in series [3], the Kb was determined as 0.0067 µM and the inhibition entry is “Dose-dependent effect”.

For `COc1cc(/C=C/C(=O)NCCc2c(C)[nH]c3ccccc23)cc(OC)c1OC`, the fraction remaining at 1 h, 10 µM came to 0.2% in series [4] and 5.8% in series [5]. Besides, the amount remaining at 1 h, 1 µM in [6] turned out to be 0%; in [7] it was 0.8%. The same compound showed a kinetic solubility in series [1] of 43 µM (≈ 17 µg/mL). Further, the cytotoxic concentration (CC50) in series [2] came to 59.5 µM.

The compound `Cc1cc2ccccc2n1CCNC(=O)/C=C/c1ccc(OCCCO)cc1` came in with a solubility (kinetic) in series [1] of 66 µM (≈ 25 µg/mL). Also, the CC50 in [2] was 36.6 µM.

With `COc1cc(/C=C/C(=O)NCCc2n[nH]c3ccccc23)cc(OC)c1OC`, the solubility (kinetic) in series [1] stood at 152 µM (≈ 58 µg/mL).

As for `Cc1cc(/C=C/C(=O)NCCc2c(C)[nH]c3ccccc23)cc(C)c1F`, the results for the fraction remaining at 1 h, 10 µM in series [4] and in [5] were 51.7% and 21.4%, respectively. The fraction remaining at 1 h, 1 µM in series [6] was determined as 0.1%; in series [7], 0.4%. Moreover, the kinetic solubility in series [1] was less than 25 µM. Moreover, the CC50 in series [2] was 317 µM.

For `COc1cc(/C=C/C(=O)NCCn2c(C)cc3ccccc32)cc(OC)c1`, the solubility (kinetic) in series [1] was less than 25 µM.

`COc1cc(/C=C/C(=O)NCCn2c(CN3CCOCC3)cc3ccccc32)cc(OC)c1OC`: in series [1], the kinetic solubility is 91 µM (≈ 43.6 µg/mL).

`COc1cc(/C=C/C(=O)NCCn2c(C)cc3ccccc32)cc(OC)c1OCCN(C)C` displayed a solubility (kinetic) in series [1] of 180 µM (≈ 81.3 µg/mL).

For the compound `Cc1cc(/C=C/C(=O)NCCn2c(C)cc3ccccc32)cc(C)c1F`, the figures for the fraction remaining at 1 h, 10 µM in [4] and in series [5] were 13% and 24%, respectively. Besides, the share remaining at 1 h, 1 µM in series [6] was determined as 18.3%; in series [7], 20.9%. Also, the solubility (kinetic) in series [1] is less than 25 µM. The half-life in series [8] was 34.8 min. In series [2], the CC50 came to 368 µM.

In series [1], `Cc1cc2ccccc2n1CCNC(=O)/C=C/c1ccc(OCCO)cc1` came in with a solubility (kinetic) of 68 µM (≈ 24.8 µg/mL). The 50% cytotoxic concentration (CC50) in [2] is 81.7 µM.

`Cc1cc2ccccc2n1CCNC(=O)/C=C/c1ccc(OCCCN(C)C)cc1` came in with a solubility (kinetic) in [1] of 306 µM (≈ 124 µg/mL).

`COc1cc(/C=C/C(=O)NCCn2c(C(F)(F)F)cc3ccccc32)cc(OC)c1OCCO` registered a solubility (kinetic) in series [1] of 35 µM (≈ 16.7 µg/mL). Moreover, the half-maximal cytotoxic concentration (CC50) in [2] is 31.2 µM.

As for `Cc1cc2ccccc2n1CCNC(=O)/C=C/c1ccc(OCCO)c(OCCO)c1`, in series [4], the share remaining at 1 h, 10 µM turned out to be 8.7%. Besides, the Cmax in [9] turned out to be 1510 ng/mL; in series [11], 128 ng/mL. In addition, the share remaining at 1 h, 1 µM in series [6] was 1.7%; in series [7] it was 16.2%. Moreover, the solubility (kinetic) in series [1] came to 153 µM (≈ 64.9 µg/mL). The Kp in series [10] and in [12] was less than 0.1 in each case. Moreover, the CC50 in series [2] amounted to 92.3 µM.

`Cc1cc2ccccc2n1CCNC(=O)/C=C/c1ccc(OCCN(C)C)cc1`: the kinetic solubility in series [1] worked out at 90 µM (≈ 35.2 µg/mL).

In the case of `Cc1[nH]c2ccccc2c1CCNC(=O)/C=C/c1ccc(OCCO)c(OCCO)c1`, the fraction remaining at 1 h, 10 µM was found to be 19.3% in series [4] and 70.4% in series [5]. In addition, the amount remaining at 1 h, 1 µM in series [6] was 7.1%; in [7], 58.5%. In series [1], the kinetic solubility turned out to be 235 µM (≈ 99.8 µg/mL). Besides, in series [2], the CC50 came to 126 µM.

Compound `O=C(/C=C/c1ccc(OCCO)c(OCCO)c1)NCCn1c(C(F)(F)F)cc2ccccc21` gave a kinetic solubility in [1] of 67 µM (≈ 32.1 µg/mL).

Regarding `COc1cc(/C=C/C(=O)NCCn2c(C)c(CN(C)C)c3ccccc32)cc(OC)c1OC`, in [1], the solubility (kinetic) came to 110 µM (≈ 49.7 µg/mL).

Take `COc1cc(/C=C/C(=O)NCCn2c(C)c(CN3CCCCC3)c3ccccc32)cc(OC)c1OC`: in [1], the solubility (kinetic) amounted to 75 µM (≈ 36.9 µg/mL).

Take `COc1cc(/C=C/C(=O)NCCn2c(C)cc3ccccc32)cc(OC)c1OC`: the fraction remaining at 1 h, 10 µM in series [4] came to 4.8%; in [5], 10.6%. Besides, the results for the amount remaining at 1 h, 1 µM in series [6] and in [7] were 0.2% and 0.1%, respectively. The compound further came in with a solubility (kinetic) in series [1] of 45 µM (≈ 17.8 µg/mL). The cytotoxic concentration (CC50) in [2] is 172 µM. In addition, in series [13], the Cmax was found to be 2400 ng/mL.

Regarding `COc1cc(/C=C/C(=O)NCCn2c(CNC3CCN(C)CC3)cc3ccccc32)cc(OC)c1OC`, the solubility (kinetic) in [1] worked out at 180 µM (≈ 91.2 µg/mL).

On to `COc1ccc(/C=C/C(=O)NCCc2c(C)[nH]c3ccccc23)cc1OC`, for which the share remaining at 1 h, 10 µM in series [4] worked out at 0.1%; in series [5], 18.6%. In addition, the share remaining at 1 h, 1 µM in [6] is 0.2%; in series [7], 12.4%. Moreover, the kinetic solubility in series [1] came to 41 µM (≈ 14.9 µg/mL). Moreover, the cytotoxic concentration (CC50) in series [2] was 246 µM.

As a reminder, the kinetic solubility is solubility judged after dilution from a stock solution rather than from solid. Broadly, the CC50 is the concentration at which the toxic effect on the cells reaches its halfway point. A word on the Kb: it is the affinity of an antagonist, worked out from how it opposes an agonist. A word on the share remaining: it is the share of the starting amount still present when the sample was taken. By Cmax is commonly meant the highest concentration seen after dosing. The term Kp denotes tissue or fluid exposure divided by exposure in the circulation.
